Patent publication US8957060B2, “Tumescent antibiotic solution” (priority 2004, dated 2015)
≈ marks a conversion by molar mass, not a printed value. Where two headings read alike, the source gives them in different places.

Experiments:
[1] = Pharmacokinetics of TAD vs IVAD (cefazolin, metronidazole): AUC and Cmax in TISF and serum
Method: A clinical pharmacologic investigation was conducted to compare the pharmacokinetic advantages of two modes of systemic antibiotic delivery, Tumescent antibiotic delivery (TAD), which involves the delivery of a relatively large volume of an antibiotic-containing solution to the subcutaneous compartment, and intravenous antibiotic delivery (IVAD), which results in direct delivery of antibiotics to the blood stream, for prophylaxis of SSI. […] Methods
With Institutional Review Board (IRB) approval, the absorption pharmacokinetics of tumescent antibiotic delivery (TAD) and intravenous antibiotic delivery (IVAD) were tested in human subjects and the antibiotic delivery modes were evaluated with respect to the area under the curve (AUC) of antibiotic concentration as a function of time and peak antibiotic concentration (Cmax) in serum and TISF. 4 female subjects participated in at least one study, one subject volunteered for 2 separate studies. 5 studies were conducted: 3 involved TAD to the abdomen, 1 involved TAD to the hips and outer thighs and 1 involved TAD to the breasts. […] Each of the 5 studies consisted of 2 to 3 pharmacokinetic procedures, for a total of 14 procedures. Any procedures conducted on an individual subject were separated by at least one week. In 13 procedures only IVAD or TAD, was used. In one procedure both IVAD and TAD were used concurrently, with IVAD started and finished within five minutes after completing TAD.
TAD was conducted as described herein. Following TAD, sequential 10 ml samples of tumescent adipose tissue were obtained using a hand-held syringe-liposuction technique. Sampling began immediately after completing the TAD infiltration (T0), and continuing until the patients reported significant discomfort. Liposuction aspirate samples were obtained at 0, 1, 2, 3, 4, 6, and 8 hours in all procedures; in 4 TAD procedures, sampling continued until 10 hours. Sequential serum samples for measurement of antibiotic concentration in serum after TAD ([Serum]TAD) were obtained simultaneously.
For IVAD, the antibiotic was delivered into an antecubital vein. […]

[2] = cited from earlier work
[3] = cited from earlier work; remark: listed apart in the source
[4] = tested on: platelet aggregation induced by ADP, epinephrine and collagen; conditions: cited from earlier work
[5] = tested on: Staphyloccus aureus (MRSA) ATCC 33592; assay: Minimum Inhibitory Concentration (MIC), dilution method; conditions: Staphylococcus aureus, 48 h, read-out: MIC end point
Method: Following inoculation, survival of test microorganisms was determined. This method of determining MIC was based on the method described in the NCCLS document M7: Methods for Dilution Antimicrobial Susceptibility Tests for Bacteria that Grow Aerobically; Approved Standard—Seventh Edition.

[6] = tested on: Staphyloccus aureus (MRSA) ATCC 33592; assay: Minimum Bactericidal Concentration (MBC); assay type: cell-based; conditions: Staphylococcus aureus, read-out: MBC end point
Description: Determinations of MBC followed the method described in “Report on the Working Party on Antibiotic Sensitivity Testing of the British Society of Antimicrobial Chemotherapy: A Guide to Sensitivity Testing.”

CO[C@@]1(NC(=O)Cc2cccs2)C(=O)N2C(C(=O)O)=C(COC(N)=O)CS[C@@H]21 [cefoxitin]
times greater antibiotic exposure in ISF by TAD than by IVAD (150×AUC[ISF]IVAD<AUC[TISF]TAD) ([1]; human, in vivo): 150

Cc1ncc([N+](=O)[O-])n1CCO [Metronidazole]
AUC[Serum]IVAD ([1]; Study 5, 600 mg metronidazole IVAD): 127
period in which serum concentration of metronidazole exceeds 4 μg/ml ([1]; female, human, in vivo): 0 to 12 h

CCN(CC)CC(=O)Nc1c(C)cccc1C [Lidocaine]
duration of local anesthesia ([2]; 1% or 2% commercial concentrations of lidocaine with epinephrine): 2 to 3 h
persistence of profound surgical local anesthesia ([2]; tumescent local anesthesia (TLA)): 6 to 8 h
dosage limitation approved by the FDA ([3]; infiltration local anesthesia, commercial lidocaine (1%) with epinephrine (1:100,000)): 7 mg/kg
maximum safe mg/kg dosage (estimated) ([3]; tumescent lidocaine, TLA without liposuction, adults): 30 mg/kg
concentration that consistently inhibits in-vitro platelet aggregation ([4]; aggregation induced by ADP, epinephrine and collagen): ≥ 0.5 mg/mL
safe systemic concentration with no effect on platelet aggregation [4]: ≤ 6 micrograms/ml

Cc1nnc(SCC2=C(C(=O)O)N3C(=O)[C@@H](NC(=O)Cn4cnnn4)[C@H]3SC2)s1 [Cefazolin]
MIC [5]: 250 µg/mL (≈ 550 µM)
MBC ([6]; 24 h, Day 1): 250 µg/mL (≈ 550 µM)
MBC ([6]; 48 h, Day 2): 250 µg/mL (≈ 550 µM)
